# From US20240269116A1, “USE OF MMP INHIBITORS FOR TREATING ACUTE RESPIRATORY DISTRESS SYNDROME” (Foresee Pharmaceuticals Co., Ltd., priority 2021, published 2024)
# Entries after “also recorded” stand apart in the source; their conditions may differ.
# System: LPS-induced acute lung injury (ALI)
# Test: LPS-induced mice acute lung injury (ALI) model, BAL fluid cell counts and lung histology at 24 hours
# Format: in vivo, Male C57BL/6 mice
# Experimental: The compound of formula (F-I) was evaluated for the therapeutic efficacy in the LPS-induced mice ALI model. In this study, animals were anesthetized with 2.5% isoflurane inhalation. LPS was used to create ALI at the dose of 3 mg/kg in 50 μl via a direct intratracheal injection. For sham animals, an equal volume of saline solution was directly injected into the trachea. After LPS injection, the test article compound of formula (F-I) was dosed at different single oral doses and different therapeutic time points. Male C57BL/6 mice (n=100) were used in this study. DEX was used as positive control. Animals were randomly divided into 10 groups and dose regimens are described in Table 1. At 24 hours after injection, all animals were euthanized and processed for bronchoalveolar lavage (BAL) fluid collection from bilateral lungs and formalin-fixation of lung tissue pathology studies. [table]
# [1] = lung histology at 24 hours of ALI, treatment at 4 or 8 hours of ALI, all dosages, vs model
# [2] = single oral dose at 4 or 8 hours of ALI (F-I 1, 3, 10 mg/kg; DEX 3 mg/kg), BAL at 24 hours, vs Vehicle group
compound,measurement,setting,value
Cc1cccc(COc2ccc(Sc3ccoc3C3NC(=O)NC3=O)cc2)c1 (stereo not drawn) [compound of formula (F-I)],therapeutic efficacy at lower doses,1 mg/kg via oral gavage at 4 or 8 hours of ALI,significant therapeutic efficacy
same,overall efficacy at 10 mg/kg,"10 mg/kg at 4 hours and 8 hours of ALI, conclusion",better
same,dose dependence of lung tissue protection,"1, 3, 10 mg/kg, dosing at 4 or 8 hours of ALI, histology",no clear dose-dependent lung tissue protection
same,"overall therapeutic efficacy, dosing at 8 hours vs 4 hours of ALI","conclusion, dosing at 8 hours compared with 4 hours of ALI",slightly better
same,"efficacy in BAL fluid analysis, comparison of doses",dose of 10 mg/kg compared with 1 and 3 mg/kg,best efficacy
same,alveolar damages (lung histology),[1],reduction
same,bronchial and arteriole damages (lung histology),[1],reduction
same,total lung injury (lung histology),[1],reduction
same,neutrophils in BAL fluid,[2],clear trend of dose-dependent reduction; also recorded: reduced
same,total inflammatory cells in BAL fluid,[2],clear trend of dose-dependent reduction; also recorded: reduced
same,"effect on BAL fluid cells, treatment at 8 hours vs 4 hours of ALI",treatment at 8 hours of ALI compared to 4 hours of ALI,better effect than that at 4 hours of ALI
same,"lung histology efficacy, treatment at 8 hours vs 4 hours of ALI","treatment at 8 hours of ALI compared to 4 hours of ALI, histology at 24 hours",better efficacy
